Results taken from US8563520B2, “Treatment of ocular disease with inhibitors of alpha2 macroglobulin protein” (McGill University, priority 2005, dated 2013).
Entries after “also recorded” stand apart in the source; their conditions may differ. Read-outs that look alike come from different tables or passages of the source.

Experiments:
[1] = test system: rat eyes; settings: for IOP of normal eyes: daily topical betaxolol 0.5% eye drops; for IOP of cauterized (high IOP) eyes: daily topical betaxolol 0.5% eye drops from day 3 post-cauterization
Protocol: Episcleral cauterization of rat eyes was performed under anesthesia. After a conjunctival incision, extra-ocular muscles were isolated and the major limbal draining veins were identified based on location, relative immobility, larger caliber and branching pattern. Cauterization of three episcleral vessels in the right eye was done with a 30″ cautery tip. The left eye in each animal was used as normal IOP control after sham-surgery (conjunctival incisions with no cauterization).
IOP was gauged using a Tonopen XL tonometer under light anesthesia (intramuscular injection of ketamine, […]; xylazine, 0.32 mg/kg; and acepromazine, 0.4 mg/kg).
A selective β-blocker (betaxolol 0.5%, Alcon) was applied daily as eye drops.

[2] = test system: retinal mRNA; settings: day 28
Protocol: RNA preparation. Total RNA was isolated from retinal tissue using TRIZOL® (Life Technologies). Three retinas belonging to the same experimental group were pooled for the gene microarray experiment. RNA was then further purified using the RNAEASY® (QIAGEN®). The integrity of the RNA samples was assessed by running aliquots on RNA 6000 Nano LabChip (Agilent) using the 2100 bioanalyzer (Agilent).
Probe synthesis, hybridization and scanning were done according to Affymetrix protocol, as a service at the McGill University and Genome Quebec Innovation Centre. For the experiments shown, Rat U34 Genome Arrays (8,700 genes, Affymetrix) were used. Briefly, RNA samples were first converted to double stranded cDNA (T7-(dT)24 primer (Genset)). Then the cDNAs were purified and used to generate the biotinylated cRNA probes (Bioarray High Yield RNA transcript labeling kit (Enzo diagnostics)). An aliquot of the purified cRNA was analyzed on RNA 6000 Nano LabChip (Agilent) to verify the integrity and size distribution. Immediately after hybridization the chip was placed in the Affymetrix GeneChip Fluidics Station 400 (Affymetrix). In total, 10 low-stringency washes (63 SSPE, 0.01% Tween-20, 0.005% Antifoam) and 4 high-stringency washes (100 mM MES, 0.1 M NaCl, 0.01% Tween-20, 50 C) were performed (all reagents from Sigma). The array was then incubated with SAPE® (streptavidin/phycoerythrin stain, Molecular Probes), followed by 10 low stringency washes. The array was incubated with biotinylated anti-streptavidin antibody (Vector Laboratories) and washed again with 15 low stringency washes. Specifically bound probe was detected by placing the array in the Agilent GeneArray scanner 2500 (Affymetrix). The scanned images were analyzed using the Microarray Analysis Suite version 5.0 (Affymetrix). Statistical analyses were done with the help of the Kensington Discovery Edition version 1.8 (Inforsense).
Retinas were carefully dissected out to insure that only retinal mRNAs were prepared for gene microarray studies. Samples were obtained from sham operated eyes (normal IOP control, Group 1), eyes at 28 days high IOP (test, Group 2), and eyes 28 days after cauterization plus daily betaxolol treatment from day 3 onwards (Group 3). […] Samples from each of these groups (n=4 each group) were studied by gene microarrays (see FIG. 2 flowchart). A cutoff of 2.5-fold was used to afford significance (p<0.05).

[3] = test system: retinal ganglion cells (RGCs); assay: RGC loss in high IOP (cauterization) glaucoma model, retrograde RGC labeling and counting; type: in vivo, rat; settings: for RGC loss (% at day 42 vs normal): 14 days high, 28 normal IOP
Protocol: Episcleral cauterization of rat eyes was performed under anesthesia.
RGCs were labeled with 3% DII (1,1-dioctadecyl-3,3,3,3-tetramethylindocarbocyanine perchlorate) or with 3% fluorogold. Briefly, Wistar rats were anesthetized and their heads were mounted in a stereotactic apparatus.
7 days after dye injection, the vasculature of the rats were perfused-fixed (transcardiac perfusion in phosphate-buffer (PB), followed by 4% PFA in PB) and the eyes were enucleated. After post-fixing for 1 hour cuts were made through the sclera to form a Maltese cross pattern and retinas detached from the eyecup at the optic nerve head. The retinas were flat-mounted on glass slides (vitreous side up) air-dried and cover-slipped with mounting medium (Molecular Probes). The retinas were observed under fluorescence microscopy (Zeiss). […] RGCs were recognized in flat mounted retinas by the presence of retrogradely transported dye and by morphology. RGCs in all 4 quadrants (16 images per retina) were averaged and presented as […] of area counted.
A puncture was made on the eye wall with a 30 G needle to allow the entrance of a cannula in the […]. A glass cannula (10 μm thickness), prepared with an upright microelectrode puller (Narishige) was connected through plastic tubing to a Hamilton syringe to dispense solutions of anti-α2 macroglobulin rabbit antibody (Calbiochem), control PBS, or control rabbit antibody (Sigma). Injections were done at day 14 and 21 post-surgery (in sham-operated control eyes with normal IOP, and cauterized eyes with high IOP). The intraocular injections were in 2 μl volumes containing a total of 2 μg antibody. This amount was selected because in quantitative western blots of whole rat retina there was an estimated total of ˜1 μg of α2 macroglobulin in glaucomatous eyes (data not shown). Ocular pressure was not affected by intraocular injections, the high IOP eyes remained high IOP and the normal IOP eyes remained normal IOP (data not shown).
A second paradigm was used to confirm the role of α2 macroglobulin in RGC death. Neutralizing antibodies to α2 macroglobulin were injected intraocularly in glaucomatous eyes with high IOP to determine whether RGC death could be prevented. The experimental model was to induce high IOP for 14 days to trigger α2 macroglobulin over-expression and RGC damage, before the initiation of α2 macroglobulin neutralizing therapy. Neutralization was used as single therapy, or was combined with daily betaxolol treatment to better reflect the clinical setting in which glaucoma patients would be simultaneously treated with pressure-lowering drugs. Neutralizing antibodies were given at days 14 and 21 after cauterization, and surviving RGCs, identified by retrograde labeling, were counted at day 42 post-surgery. […]

[4] = test system: α2 macroglobulin mRNA; settings: betaxolol treatment; still significantly increased over normal IOP
Excerpt: Retinas were dissected from eyes treated as indicated (n=3) and mRNAs were purified and studied by Northern blotting with labeled α2 macroclobulin or actin (control) probes.

SMILES: CC(C)NCC(O)COc1ccc(CCOCC2CC2)cc1 (stereo not drawn) [betaxolol]
- IOP of normal eyes [1]: no significant effect on normal IOP
- IOP of cauterized (high IOP) eyes [1]: full normalization of IOP after 3 days
- IOP of cauterized (high IOP) eyes ([1]; listed as Betaxolol): fully normalized high IOP from day 7 onward
- IOP of normal eyes ([1]; listed as Betaxolol): no significant effect
- Relative Change versus non-cauterized eyes, cauterized + betaxolol B ([2]; gene ATPase alpha-1 subunit (M74494)): 1.5
- Relative Change versus non-cauterized eyes, cauterized + betaxolol B ([2]; gene Amphiphysin 1 (Y13381)): −1.1
- Relative Change versus non-cauterized eyes, cauterized + betaxolol B ([2]; gene Amyloid precursor-like protein 2 (X77934)): 1.1
- Relative Change versus non-cauterized eyes, cauterized + betaxolol B ([2]; gene Asparagine synthase (U07201)): −1.1
- Relative Change versus non-cauterized eyes, cauterized + betaxolol B ([2]; gene B-2 arylamine N-acetyltransferase (U01347)): 1.5
- Relative Change versus non-cauterized eyes, cauterized + betaxolol B ([2]; gene Beta A3/A1 crystallin (X15143)): −1.1
- Relative Change versus non-cauterized eyes, cauterized + betaxolol B ([2]; gene Clone RKIAS43 (AA892520)): 2.9
- Relative Change versus non-cauterized eyes, cauterized + betaxolol B ([2]; gene Crybb2 (X83671)): −1.0
- Relative Change versus non-cauterized eyes, cauterized + betaxolol B ([2]; gene Cyclic nucleotide-gated cation channel (AJ000515)): 3.4
- Relative Change versus non-cauterized eyes, cauterized + betaxolol B ([2]; gene Gial fibrillary acidic protein (AF028784)): 1.4
- Relative Change versus non-cauterized eyes, cauterized + betaxolol B ([2]; gene Gzα (U77483)): 1.1
- Relative Change versus non-cauterized eyes, cauterized + betaxolol B ([2]; gene Helicase RAP 30 (L01267)): 1.2
- Relative Change versus non-cauterized eyes, cauterized + betaxolol B ([2]; gene PSD-95/SAP90-asociated protein-4 (U67140)): −1.0
- Relative Change versus non-cauterized eyes, cauterized + betaxolol B ([2]; gene Protein phosphatase 1 gamma (S78217)): 2.5
- Relative Change versus non-cauterized eyes, cauterized + betaxolol B ([2]; gene RBCK (AB011369)): 1.3
- Relative Change versus non-cauterized eyes, cauterized + betaxolol B ([2]; gene Ras-related p23 (X12535)): 1.1
- Relative Change versus non-cauterized eyes, cauterized + betaxolol B ([2]; gene Reggie1-1 (AF023302)): 1.8
- Relative Change versus non-cauterized eyes, cauterized + betaxolol B ([2]; gene Ribosomal protein L23-related product (U62635)): 3.8
- Relative Change versus non-cauterized eyes, cauterized + betaxolol B ([2]; gene S-adenosylmethionine synthase (J05571)): 1.1
- Relative Change versus non-cauterized eyes, cauterized + betaxolol B ([2]; gene SPARC (U75928)): 1.9
- Relative Change versus non-cauterized eyes, cauterized + betaxolol B ([2]; gene cDNA clone rx00382 (AI639155)): 7.2
- Relative Change versus non-cauterized eyes, cauterized + betaxolol B ([2]; gene cDNA clone rx01295 (AI639375)): 4.8
- Relative Change versus non-cauterized eyes, cauterized + betaxolol B ([2]; gene cDNA clone rx05013 (AI639441)): 2.8
- Relative Change versus non-cauterized eyes, cauterized + betaxolol B ([2]; gene α2 macroglobulin (M23566)): 5.6
- RGC loss (% at day 42 vs normal) ([3]; daily betaxolol days 14-42, no Ab injection): 19±1%
- RGC loss (% at day 42 vs normal) ([3]; daily betaxolol days 14-42, no Ab injection, listed as Betaxolol): 19 ± 1%
- RGC loss (% at day 42 vs normal) ([3]; daily betaxolol days 14-42 plus control serum days 14 and 21): 21 ± 5%
- rate of RGC loss ([3]; daily betaxolol, IOP normalized from day 7 onwards): reduces the rate of RGC loss, but does not prevent it; also recorded: reduced the average rate of RGC loss, but did not prevent it
- increase of retinal α2 macroglobulin mRNA at day 28 of high IOP [4]: attenuated slightly
